Laboratory results from PubChem BioAssay (NCI).
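Following 48 hours of exposure in 96-well plates, responses at five concentrations were used to interpolate endpoints linearly. At the TGI there is no net growth.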

Legend:
Test in all cases: DTP human tumour cell line panel, 48 h
786-0 renal = system: 786-0 renal
A549 NSCLC = system: A549 NSCLC
ACHN renal = system: ACHN renal
CCRF-CEM leukemia = system: CCRF-CEM leukemia
COLO 205 colon = system: COLO 205 colon
DMS 114 small cell lung = system: DMS 114 small cell lung
DMS 273 small cell lung = system: DMS 273 small cell lung
EKVX NSCLC = system: EKVX NSCLC
HCT-116 colon = system: HCT-116 colon
HCT-15 colon = system: HCT-15 colon
HL-60(TB) leukemia = system: HL-60(TB) leukemia
HOP-62 NSCLC = system: HOP-62 NSCLC
HT29 colon = system: HT29 colon
IGROV1 ovarian = system: IGROV1 ovarian
K-562 leukemia = system: K-562 leukemia
KM12 colon = system: KM12 colon
KM20L2 colon = system: KM20L2 colon
LOX IMVI melanoma = system: LOX IMVI melanoma
LXFL 529 NSCLC = system: LXFL 529 NSCLC
M14 melanoma = system: M14 melanoma
M19-MEL melanoma = system: M19-MEL melanoma
MALME-3M melanoma = system: MALME-3M melanoma
MOLT-4 leukemia = system: MOLT-4 leukemia
NCI-H226 lung = system: NCI-H226 lung
NCI-H23 lung = system: NCI-H23 lung
NCI-H460 lung = system: NCI-H460 lung
NCI-H522 lung = system: NCI-H522 lung
OVCAR-3 ovarian = system: OVCAR-3 ovarian
OVCAR-4 ovarian = system: OVCAR-4 ovarian
OVCAR-5 ovarian = system: OVCAR-5 ovarian
OVCAR-8 ovarian = system: OVCAR-8 ovarian
RPMI-8226 leukemia = system: RPMI-8226 leukemia
RXF 393 renal = system: RXF 393 renal
SF-268 CNS = system: SF-268 CNS
SF-295 CNS = system: SF-295 CNS
SF-539 CNS = system: SF-539 CNS
SK-MEL-2 melanoma = system: SK-MEL-2 melanoma
SK-MEL-28 melanoma = system: SK-MEL-28 melanoma
SK-MEL-5 melanoma = system: SK-MEL-5 melanoma
SN12C renal = system: SN12C renal
SNB-19 CNS = system: SNB-19 CNS
SNB-75 CNS = system: SNB-75 CNS
SNB-78 CNS = system: SNB-78 CNS
SR leukemia = system: SR leukemia
SW-620 colon = system: SW-620 colon
TK-10 renal = system: TK-10 renal
U251 CNS = system: U251 CNS
UACC-62 melanoma = system: UACC-62 melanoma
UO-31 renal = system: UO-31 renal
XF 498 CNS = system: XF 498 CNS
A498 renal = system: A498 renal
CAKI-1 renal = system: CAKI-1 renal
DLD-1 colon = system: DLD-1 colon
HCC-2998 colon = system: HCC-2998 colon
HOP-18 NSCLC = system: HOP-18 NSCLC
HOP-92 NSCLC = system: HOP-92 NSCLC
RXF-631 renal = system: RXF-631 renal
SK-OV-3 ovarian = system: SK-OV-3 ovarian
UACC-257 melanoma = system: UACC-257 melanoma

Measured: TGI

Cn1c(=O)c2c(ncn2CCCCn2ccnc2[N+](=O)[O-])n(C)c1=O
not listed: A498 renal | CAKI-1 renal | DLD-1 colon | HCC-2998 colon | HOP-18 NSCLC | HOP-92 NSCLC | RXF-631 renal | SK-OV-3 ovarian | UACC-257 melanoma
> 100 µM: all other assays above

COC(=O)C(C(=O)C(=O)Nc1c(Cl)cc([N+](=O)[O-])cc1Cl)c1nc2cc(C)c(C)cc2[nH]c1=O (stereo not given)
not listed: SK-MEL-28 melanoma | SK-MEL-5 melanoma | SR leukemia | XF 498 CNS
> 100 µM: all other assays above
